Source: patent US4831026A, “2-oxa-isocephem compounds, compositions containing same and processes of using” (Otsuka Pharmaceutical Co., Ltd., priority 1985, dated 1989)
Like-named read-outs stand apart in the source and are kept apart here.

Legend:
S. aureus FDA-209-p = experiment: Antimicrobial activity test: MIC by the agar plate dilution method, S. aureus FDA-209-p; assay type: cell-based, Staphylococcus aureus; conditions: inoculum 1×10^6 cells/ml
Procedure, shortened: (§1)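 Bacteria were standardised to 1×10^6 cells/ml (optical density 0.07-0.16 at 600 mμ) and then tested by agar plate dilution. The minimal inhibitory concentration was recorded.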

K. pneumoniae NCTC-9632 = experiment: Antimicrobial activity test: MIC by the agar plate dilution method, K. pneumoniae NCTC-9632; assay type: cell-based; conditions: inoculum 1×10^6 cells/ml
Procedure, shortened: as §1

P. aeruginosa NCTC-10490 = experiment: Antimicrobial activity test: MIC by the agar plate dilution method, P. aeruginosa NCTC-10490; assay type: cell-based; conditions: inoculum 1×10^6 cells/ml
Procedure, shortened: as §1

E. coli NIHJ = experiment: Antimicrobial activity test: MIC by the agar plate dilution method, E. coli NIHJ; assay type: cell-based; conditions: inoculum 1×10^6 cells/ml
Experimental: In order to investigate the in vitro activity of the under-mentioned compounds against various bacteria, the minimal inhibitory concentration (MIC) values were determined by the agar plate dilution method [see Chemotherapy, 22, 1126-1128 (1974)].
Each test inoculum was adjusted to 1×10^6 cells/ml (O.D., 600 mμ: 0.07-0.16).

P. mirabilis 1287 = experiment: Antimicrobial activity test: MIC by the agar plate dilution method, P. mirabilis 1287; assay type: cell-based
Procedure, shortened: as §1

E. coli No. 29 = experiment: Antimicrobial activity test: MIC by the agar plate dilution method, E. coli No. 29; assay type: cell-based
Procedure, shortened: as §1

S. marcescens IFO-12648 = experiment: Antimicrobial activity test: MIC by the agar plate dilution method, S. marcescens IFO-12648; assay type: cell-based
Procedure, shortened: as §1

M. morganii ATCC-25830 = experiment: Antimicrobial activity test: MIC by the agar plate dilution method, M. morganii ATCC-25830; assay type: cell-based; conditions: inoculum 1×10^6 cells/ml
Procedure, shortened: as §1

[1] = P. mirabilis 1287, inoculum 1×10^6 cells/ml
[2] = E. coli No. 29, inoculum 1×10^6 cells/ml

Substance | MIC (S. aureus FDA-209-p) [µg/mL] | MIC (K. pneumoniae NCTC-9632) [µg/mL] | MIC (P. aeruginosa NCTC-10490) [µg/mL] | MIC (E. coli NIHJ) [µg/mL] | MIC (P. mirabilis 1287) [µg/mL] | MIC (E. coli No. 29) [µg/mL] | MIC (S. marcescens IFO-12648) [µg/mL] | MIC (M. morganii ATCC-25830) [µg/mL] | MIC (P. mirabilis 1287; [1]) [µg/mL] | MIC (E. coli No. 29; [2]) [µg/mL] | MIC (S. marcescens IFO-12648; S. marcescens IFO-12648, inoculum 1×10^6 cells/ml) [µg/mL]
7-[2-(2-Trifluoroacetamidothiazol-4-yl)-2methoxyiminoacetamido]-3-[(carbamoyloxy)methyl]-Δ^3 -O-2-isocephem-4-carboxylic acid (syn-isomer) [No. 5] | > 100 | 0.2 | 100 | 0.78 | 0.39 | 0.78 | 0.39 | 0.2 |  |  | 
Benzhydryl 7-[2-(2-aminothiazol-4-yl)-2-cyclopropylmethyloxyiminoacetamido]-3-[(1,2,3-thiadiazol-5-yl)thiomethyl]-Δ^3 -O-2-isocephem-4-carboxylate (syn-isomer) [Example 56] | 0.05 | 0.39 | 0.39 | 0.2 |  |  | 0.78 | 0.05 | 0.2 | 0.1 | 
7-[2-(2-Chloroacetamidothiazol-4-yl)-2-ethoxyiminoacetamido]-3-[(1,3,4-thiadiazol-2-yl)thiomethyl-]-Δ^3 -O-2-isocephem-4-carboxylic acid (syn-isomer) [Example 28] | 0.78 | 0.05 | 1.56 | ≤ 0.025 |  |  |  | ≤ 0.025 | ≤ 0.025 | ≤ 0.025 | 0.2
